Among the data in US8445510B2, “Fused bicyclic kinase inhibitors” (OSI Pharmaceuticals, LLC, priority 2011, dated 2013) are IC50 values, retold here.

Holding throughout (format): cell-based
For one assay, the system named is Karpas-299 cells. The assay is described as follows: Karpas-299 cell proliferation assay (CellTiter-Glo). As to conditions: Homo sapiens, 72 h; Karpas-299 cell line (NPM-ALK); 3 days incubation; at least duplicate experiments; read-out: Prolif. IC50. As to the method:
The effect of inhibitors on the proliferation of Karpas-299 cells (DSMZ no. ACC 31) was determined using the following protocol. Karpas-299 cells were plated in 96-well white tissue culture treated plates (Corning 3917) in growth medium (RPMI, 10% FCS) at a density of 5000 cells/well in a total volume of 135 μL and incubated at 37° C., 5% CO2, 95% humidity overnight. The following day, one-tenth volume of a 10× concentration of compounds was added to the wells in an 8-point dilution series. Compounds were serially diluted (1:4) in DMSO from a 10 mM stock solution prior to dilution in growth media to the 10× working concentrations (5% DMSO). Final concentration of DMSO in compound-treated wells was 0.5%. Control wells containing growth media or growth media/0.5% DMSO were included in all test plates. […] Once the compounds were added to the cells, plates were incubated for 3 days at 37° C., 5% CO2 at 95% humidity. After 72 hours, all cells and reagents were equilibrated to room temperature and 15 μL of CellTiter-Glo reagent (Promega # G7573) was added to each well. Plates were shaken on a platform for 10 minutes at room temperature prior to reading luminescence. The value of the signal of the control wells was set as 100% growth and growth inhibition was expressed as percent of control. IC50 values were determined from the percent of control data using a standard four-parameter curve fit equation.
The IC50 values of exemplary compounds of the present invention determined in a cell proliferation assay using the Karpas-299 cell line according to the procedures described herein in at least duplicate experiments are abbreviated as follows and are shown in Table 5: A, IC50≦0.05 μM; B, 0.05 μM<IC50≦0.2 μM; C, 0.2 μM<IC50≦1 μM; D, IC50>1 μM; ND, not determined. The Example # of Table 5 corresponds to the compound example number as illustrated in the Examples section.
The Karpas-299 cell line has a t(2; 5) chromosomal translocation and expresses the NPM-ALK fusion protein, resulting in constitutively active ALK. […] Ther. 6(12):3314-22 (2007)]. With this “ALK-driven” cell line, the cell proliferation IC50 values can thus be used as surrogate for the p-ALK cell mechanistic IC50 values.

Another assay has as its target T1, RON (Homo sapiens, UniProt Q04912).
T1 sequence (Q04912 913-1400): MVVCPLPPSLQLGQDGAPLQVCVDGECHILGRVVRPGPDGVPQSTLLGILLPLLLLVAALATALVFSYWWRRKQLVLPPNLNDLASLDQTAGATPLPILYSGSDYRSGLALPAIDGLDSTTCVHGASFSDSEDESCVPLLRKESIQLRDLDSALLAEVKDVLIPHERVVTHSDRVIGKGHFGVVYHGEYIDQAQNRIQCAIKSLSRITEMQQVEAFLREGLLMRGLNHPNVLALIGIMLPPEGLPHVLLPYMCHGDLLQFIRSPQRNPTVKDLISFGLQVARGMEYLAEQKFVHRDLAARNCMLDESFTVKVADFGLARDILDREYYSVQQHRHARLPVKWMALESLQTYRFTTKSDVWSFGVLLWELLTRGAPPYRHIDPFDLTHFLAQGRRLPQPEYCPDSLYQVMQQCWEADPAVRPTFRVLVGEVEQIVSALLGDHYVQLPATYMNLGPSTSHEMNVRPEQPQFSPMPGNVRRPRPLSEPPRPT
The assay is described as follows: sfRON cell mechanistic assay (HeLa), phosphorylated RON ELISA. As to conditions: HeLa cells transfected with sfRON; inhibition of phosphorylated RON; four hours incubation; at least duplicate experiments; read-out: sfRON mech IC50. On the procedure:
The cellular activity of the compounds of the present invention against RON may be determined by the following procedure. HeLa cells were plated in Falcon 3072 96-well plates in growth media (DMEM, 10% FBS, 1% L-glutamine) at a density of 10000 cells/well and incubated at 37° C., 5% CO2 overnight. The following day, cells were transfected with 0.2 μg sfRON-pcDNA plasmid DNA with 0.5 μL Lipofectamine-2000 per well in the presence of 50 μL OPTI-MEM, incubated at 37° C., 5% CO2 overnight. Costar 3915 96-well assay plates were coated with rabbit Anti-RON antibody at 2.0 μg/mL, sealed, and incubated overnight at 4° C. On the third day, coated plates were washed with PBS and blocked with 3% BSA. For the sfRON transfected cells, one-tenth volume of a 10× concentration of compounds was added to the wells in a 6-point dilution series. The dilution series was composed of an initial 1:5 dilution of a 10 mM DMSO stock solution of compound in DMSO, followed by a 1:10 dilution in growth media, for a final DMSO concentration on cells of 0.5%. Control wells were treated with 0.5% DMSO. The typical range of dilution was 10 μM to 3 nM. Once compound was added to the cells, plates were incubated for four hours at 37° C., 5% CO2. Plates were then washed in PBS, and lysed in triton-based lysis buffer. Lysates were transferred to the blocked capture plates. The phosphorylated RON levels were measured by incubating with a Goat polyclonal antibody against phosphorylated RON ([pYpY1238/1239]) followed by an anti-Goat antibody conjugated to HRP. Signal was measured on a Wallac Victor plate reader with luminance. The DMSO signal of the control wells was defined as 100% and the percent of inhibition of phosphorylated RON was expressed as percent of control. IC50 values were determined from the percent of control data using a standard four-parameter model.
The IC50 values of exemplary compounds of the present invention determined in a sfRON cell mechanistic assay using the HeLa cell line according to the procedures described herein in at least duplicate experiments are abbreviated as follows and are shown in Table 3: A, IC50≦0.2 μM; B, 0.2 μM<IC50≦1.0 μM; C, IC50>1 μM; ND, not determined. The Example # of Table 3 corresponds to the compound example number as illustrated in the Examples section.
For orientation: An ELISA detects its analyte on a solid surface through an enzyme-linked reagent.

The next assay deals with MKN45 cells. The assay is described as follows: MKN45 cell proliferation assay (CellTiter-Glo). Conditions: Homo sapiens, MKN-45, 72 h; MKN45 cell line; 3 days incubation; at least duplicate experiments; read-out: Prolif. IC50. On the procedure:
The effect of inhibitors on the proliferation of MKN45 cells was determined using the following protocol. MKN45 cells were plated in Corning 3917 96-well white tissue culture treated plates in growth medium (RPMI, 10% FCS) at a density of 5000 cells/well in a total volume of 135 μL and incubated at 37° C., 5% CO2, 95% humidity overnight. The following day, one-tenth volume of a 10× concentration of compounds was added to the wells in an 8-point dilution series. The dilution series was composed of an initial 1:5 dilution of a 10 mM stock of compound in DMSO, followed by serial 1:4 dilutions in DMSO, then a 1:20 dilution in growth medium prior to the 1:10 dilution into the cell plate. […] The typical dilution range is 10 μM to 0.6 nM. Once the compound was added to the cells, plates were incubated for 3 days at 37° C., 5% CO2 at 95% humidity. On the third day, after allowing all cells and reagents to come to room temperature, 25 μL of CellTiter-Glo reagent (Promega #G7573) was added to the wells. Plates were shaken on a platform for 10 minutes prior to reading luminescence for 0.1 seconds. The signal of the control wells was taken as 100% growth and growth inhibition was expressed as percent of control. IC50 values were determined from the percent of control data using a standard four-parameter model.
The IC50 values of exemplary compounds of the present invention determined in a cell proliferation assay using the MKN45 cell line according to the procedures described herein in at least duplicate experiments are abbreviated as follows and are shown in Table 2: A, IC50≦0.05 μM; B, 0.05 μM<IC50≦0.2 μM; C, 0.2 μM<IC50≦1 μM; D, IC50>1 μM; ND, not determined. The Example # of Table 2 corresponds to the compound example number as illustrated in the Examples section.
Treatment of this cell line with a selective c-MET inhibitor led to induction of apoptosis and inhibition of proliferation, whereas non-MET-amplified cell lines were not affected [Smolen et al., Proc. Natl. Acad. Sci. USA, 103(7):2316-2321 (2006)]. This cell line is thus “driven” by c-MET, and antiproliferative effects correlate very well with the inhibition of c-MET phosphorylation so that the cell proliferation IC50, values can be used as surrogate for the c-MET cell mechanistic IC50, values. Under the assay conditions described herein, the IC50 values correlate nearly 1:1.
Background: Cellular ATP, detected with luciferase, serves as a proxy for viable cell number.

On to `Cc1c(-c2cnc3[nH]cc([C@H](C)c4c(OC(F)F)ccc(F)c4Cl)c3c2)cnn1[C@H]1CC[C@H](N)CC1` [Example 93, trans-4-[4-(3-{(1S)-1-[2-Chloro-6-(difluoromethoxy)-3-fluorophenyl]ethyl}-1H-pyrrolo[2,3-b]pyridin-5-yl)-5-methyl-1H-pyrazol-1-yl]cyclohexanamine], for which the IC50 – broadly, the concentration that inhibits the measured activity by half – is not above 0.05 µM with Karpas-299 cells, not above 0.2 µM at RON and not above 0.05 µM in the assay on MKN45 cells.
For the molecule `N#CC(c1c(Cl)ccc(F)c1Cl)c1c[nH]c2ncc(-c3cnn([C@H]4CC[C@H](O)CC4)c3F)cc12` (stereo partly drawn) [Example 109], the IC50 in the assay on Karpas-299 cells is 0.2 to 1 µM; at RON, 0.2 to 1 µM; with MKN45 cells, 0.05 to 0.2 µM.
`COc1c(F)ccc(Cl)c1C(C)c1c[nH]c2ncc(-c3cnn([C@H]4CC[C@H](O)CC4)c3C)cc12` (stereo partly drawn) [Example 112, trans-4-(4-{3-[1-(6-Chloro-3-fluoro-2-methoxyphenyl)ethyl]-1H-pyrrolo[2,3-b]pyridin-5-yl}-5-methyl-1H-pyrazol-1-yl)cyclohexanol]: the IC50 in the assay with Karpas-299 cells was 0.2 to 1 µM; at RON, more than 1 µM; with MKN45 cells, more than 1 µM.
Consider `[2H]C([2H])([2H])[C@H](c1c(OC(F)F)ccc(F)c1Cl)c1c[nH]c2ncc(-c3cnn([C@H]4CC[C@H](O)CC4)c3C)cc12` [Example 113, trans-4-(4-{3-[(1S)-1-[2-Chloro-6-(difluoromethoxy)-3-fluorophenyl](2,2,2-^2H3)ethyl]-1H-pyrrolo[2,3-b]pyridin-5-yl}-5-methyl-1H-pyrazol-1-yl)cyclohexanol], for which the IC50 with Karpas-299 cells was not above 0.05 µM; on RON, not above 0.2 µM; in the assay on MKN45 cells, not above 0.05 µM.
`[2H][C@@](C)(c1c(OC(F)F)ccc(F)c1Cl)c1c[nH]c2ncc(-c3cnn([C@H]4CC[C@H](O)CC4)c3C)cc12` [Example 114, trans-4-(4-{3-[(1S)-1-[2-Chloro-6-(difluoromethoxy)-3-fluorophenyl](1-^2H)ethyl]-1H-pyrrolo[2,3-b]pyridin-5-yl}-5-methyl-1H-pyrazol-1-yl)cyclohexanol]: the half-inhibitory concentration (IC50) in the assay with Karpas-299 cells is not above 0.05 µM; on RON it was not above 0.2 µM; in the assay on MKN45 cells it was not above 0.05 µM.
For the molecule `Cc1c(-c2cnc3[nH]cc(C(C)c4c(Cl)ccc(F)c4O)c3c2)cnn1[C@H]1CC[C@H](O)CC1` (stereo partly drawn) [Example 115, 3-Chloro-6-fluoro-2-(1-{5-[1-(trans-4-hydroxycyclohexyl)-5-methyl-1H-pyrazol-4-yl]-1H-pyrrolo[2,3-b]pyridin-3-yl}ethyl)-phenol], the half-maximal inhibitory concentration (IC50) was not above 0.05 µM in the assay on Karpas-299 cells, more than 1 µM on RON and 0.05 to 0.2 µM with MKN45 cells.
The matching figures for `Cc1c(-c2cnc3[nH]cc([C@H](CF)c4c(Cl)ccc(F)c4Cl)c3c2)cnn1[C@H]1CC[C@H](O)CC1` [Example 118, trans-4-(4-{3-[(1S)-1-(2,6-Dichloro-3-fluorophenyl)-2-fluoroethyl]-1H-pyrrolo[2,3-b]pyridin-5-yl}-5-methyl-1H-pyrazol-1-yl)cyclohexanol]: 0.05 to 0.2 µM, 0.2 to 1 µM and 0.05 to 0.2 µM.
Consider `COc1ccc(F)c(Cl)c1[C@H](CF)c1c[nH]c2ncc(-c3cnn([C@H]4CC[C@H](O)CC4)c3C)cc12` [Example 120, trans-4-(4-{3-[(1R)-1-(2-Chloro-3-fluoro-6-methoxyphenyl)-2-fluoroethyl]-1H-pyrrolo[2,3-b]pyridin-5-yl}-5-methyl-1H-pyrazol-1-yl)cyclohexanol], for which the IC50 in the assay with Karpas-299 cells is 0.2 to 1 µM; on RON, more than 1 µM; in the assay on MKN45 cells it was 0.2 to 1 µM.
